In ChEMBL document CHEMBL1201862, “PubChem BioAssay data set” (2004):
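Exposure lasted 48 hours, with cells grown in 96-well plates and compounds tested at five concentrations. GI50 is the concentration that inhibits growth by half.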 Calls of active or inactive are those of the source. No stated cut-off is given here; in the data, active = GI50 up to about 1.1 µM and inactive = higher.

Tests used:
Test in all cases: NCI-60 cell line screen, 48 h
SR = tested on: SR
SW-620 = tested on: SW-620
OVCAR-5 = tested on: OVCAR-5
HL-60 = tested on: HL-60
M14 = tested on: M14
SF-539 = tested on: SF-539
TK-10 = tested on: TK-10
HCC 2998 = tested on: HCC 2998
Malme-3M = tested on: Malme-3M
NCI-H460 = tested on: NCI-H460
NCI-H522 = tested on: NCI-H522
RPMI-8226 = tested on: RPMI-8226
NCI-H226 = tested on: NCI-H226
SNB-19 = tested on: SNB-19
EKVX = tested on: EKVX
RXF 393 = tested on: RXF 393
HOP-92 = tested on: HOP-92

Measured: GI50

COc1ccc(CNc2cnc3ccc(N)cc3n2)cc1OC
inactive: SR > 100 µM | SW-620 > 100 µM | OVCAR-5 > 100 µM | HL-60 > 100 µM | M14 > 100 µM | SF-539 > 100 µM | TK-10 64.6 µM | HCC 2998 > 100 µM | Malme-3M > 100 µM | NCI-H460 > 100 µM | NCI-H522 > 100 µM | RPMI-8226 > 100 µM | NCI-H226 > 100 µM | SNB-19 > 100 µM | EKVX > 100 µM

CN(CCS(=O)(=O)N1C(=O)C2CCCN2C(=O)[C@@H]1Cc1ccccc1)C(=O)OCc1ccccc1 (stereo partly drawn)
inactive: SR 40 µM | RXF 393 28.6 µM | SW-620 > 100 µM | OVCAR-5 > 100 µM | HL-60 10.7 µM | M14 45.6 µM | SF-539 > 100 µM | TK-10 73.3 µM | HOP-92 26.2 µM | HCC 2998 40.2 µM | Malme-3M 65 µM | NCI-H460 47.4 µM | NCI-H522 39.5 µM | RPMI-8226 15.1 µM | NCI-H226 37.8 µM | SNB-19 41.6 µM | EKVX 30.9 µM

C=CCC(N(C)C(=O)[C@H](Cc1ccccc1)NC(=O)OCc1ccccc1)P(=O)(Oc1ccccc1)Oc1ccccc1 (stereo partly drawn)
inactive: SR 6.37 µM | RXF 393 > 100 µM | SW-620 > 100 µM | HL-60 12.8 µM | M14 > 100 µM | SF-539 > 100 µM | TK-10 > 100 µM | HOP-92 29 µM | HCC 2998 > 100 µM | Malme-3M > 100 µM | NCI-H460 6.1 µM | NCI-H522 > 100 µM | RPMI-8226 6.81 µM | NCI-H226 > 100 µM | SNB-19 > 100 µM | EKVX > 100 µM

CC1C(=O)O[C@H]2C1CC[C@@]1(C)[C@H](O)CC[C@@]13C[C@]2(O)OO3 (stereo partly drawn)
inactive: SR > 100 µM | SW-620 > 100 µM | OVCAR-5 > 100 µM | HL-60 > 100 µM | M14 > 100 µM | TK-10 > 100 µM | HOP-92 > 100 µM | HCC 2998 > 100 µM | Malme-3M > 100 µM | NCI-H460 > 100 µM | RPMI-8226 > 100 µM | NCI-H226 > 100 µM | SNB-19 > 100 µM

CN(C(=O)c1cccs1)C(=S)N1CCN(c2ccccn2)CC1
inactive: RXF 393 > 100 µM | SW-620 > 100 µM | OVCAR-5 > 100 µM | HL-60 > 100 µM | M14 > 100 µM | SF-539 > 100 µM | TK-10 > 100 µM | HOP-92 > 100 µM | Malme-3M > 100 µM | NCI-H460 > 100 µM | NCI-H522 > 100 µM | RPMI-8226 > 100 µM | NCI-H226 > 100 µM | SNB-19 > 100 µM

O=C1CCCCCCCCCCC(=O)N2CCOCCOCCN1Cc1cccc(n1)C2
inactive: RXF 393 28.4 µM | SW-620 > 100 µM | OVCAR-5 > 100 µM | M14 > 100 µM | SF-539 83.2 µM | TK-10 > 100 µM | HCC 2998 > 100 µM | Malme-3M > 100 µM | NCI-H460 > 100 µM | NCI-H522 85.1 µM | RPMI-8226 36.1 µM | NCI-H226 > 100 µM | SNB-19 > 100 µM | EKVX > 100 µM

OC12c3ccccc3C3CCC4(OCCO4)C3C1c1ccccc12 (stereo not drawn)
inactive: RXF 393 39.9 µM | SW-620 > 100 µM | OVCAR-5 > 100 µM | HL-60 > 100 µM | M14 > 100 µM | SF-539 > 100 µM | TK-10 83.2 µM | HCC 2998 > 100 µM | Malme-3M > 100 µM | NCI-H460 > 100 µM | NCI-H522 65 µM | RPMI-8226 64 µM | NCI-H226 > 100 µM | SNB-19 > 100 µM | EKVX > 100 µM

O=C(O)C1=C(C(=O)O)Oc2ccccc2O1
inactive: SR > 100 µM | RXF 393 > 100 µM | SW-620 > 100 µM | OVCAR-5 > 100 µM | HL-60 > 100 µM | M14 > 100 µM | SF-539 > 100 µM | TK-10 > 100 µM | HOP-92 > 100 µM | HCC 2998 > 100 µM | Malme-3M > 100 µM | NCI-H460 > 100 µM | NCI-H522 > 100 µM | NCI-H226 > 100 µM | SNB-19 > 100 µM | EKVX > 100 µM

C/C(=N\NC(=O)CC(=O)Nc1ccc(C)cc1)c1cc2ccccc2oc1=O
inactive: RXF 393 89.1 µM | SW-620 > 100 µM | HL-60 > 100 µM | M14 > 100 µM | SF-539 > 100 µM | TK-10 > 100 µM | Malme-3M 38.3 µM | NCI-H460 > 100 µM | NCI-H522 > 100 µM | RPMI-8226 > 100 µM | NCI-H226 > 100 µM | SNB-19 > 100 µM | EKVX > 100 µM
